These results are taken from ChEMBL document CHEMBL1127158, “1,3-dithianes with acid functionalities: potent inhibitors and candidate affinity probes for the gaba-gated chloride channel” (Bioorg Med Chem Lett, 1993).

In this test the target is GABA-A receptor; anion channel. Description: Inhibition of [3H]EBOB binding at GABA-gated chloride channel NCB site in bovine brain membranes. The format is cell membranes, Bos taurus.
On to `CC(C)(C)C1CSC(c2ccc(C#CCO)cc2)SC1` (centres undefined), for which the IC50 (in general, the concentration that inhibits the measured activity by half) was found to be 76 nM.
As for `CC(C)(C)C1CSC(c2ccc(C#CCCC(=O)C=[N+]=[N-])cc2)SC1` (centres undefined), the figure is 830 nM.
With `CC(C)(C)C1CSC(c2ccc(C#CCCCO)cc2)SC1` (centres undefined), the 50% inhibitory concentration (IC50) stood at 410 nM.
`CCC#Cc1ccc(C2SCC(C(C)(C)C)CS2)cc1` (centres undefined) came in with a concentration for half-maximal inhibition (IC50) of 690 nM. Against the preceding compound, the IC50 is about 1.7-fold higher.
On to `CC(C)(C)C1CSC(c2ccc(C#CC(=O)C=[N+]=[N-])cc2)SC1` (centres undefined), for which the IC50 stood at 690 nM.
On to `CCCC#Cc1ccc(C2SCC(C(C)(C)C)CS2)cc1` (centres undefined), for which the 50% inhibitory concentration (IC50) came out at 6700 nM. This IC50 is about 9.7-fold higher than that of the compound before.
In the case of `CC#Cc1ccc(C2SCC(C(C)(C)C)CS2)cc1` (centres undefined), the IC50 stood at 35 nM.
With `CC(C)(C)C1CSC(c2ccc(C#CCCP(=O)(O)O)cc2)SC1` (centres undefined), the half-maximal inhibitory concentration (IC50) stood at 10 nM. This IC50 is about 3.5-fold lower than that of the compound before.
The compound `CC(C)(C)C1CSC(c2ccc(C#CCC(=O)O)cc2)SC1` (centres undefined) displayed an IC50 of 23 nM.
Regarding `CCOC(=O)CC#Cc1ccc(C2SCC(C(C)(C)C)CS2)cc1` (centres undefined), the IC50 worked out at 460 nM.
As for `CC(O)C#Cc1ccc(C2SCC(C(C)(C)C)CS2)cc1` (centres undefined), the figure is 3100 nM; as for `COC(=O)C#Cc1ccc(C2SCC(C(C)(C)C)CS2)cc1` (centres undefined), 9 nM.
In turn, `C#Cc1ccc(C2SCC(C(C)(C)C)CS2)cc1` (centres undefined) showed an IC50 of 21 nM. Compared with the last compound, the IC50 is about 2.3-fold higher.
Next, `CCOP(=O)(CCC#Cc1ccc(C2SCC(C(C)(C)C)CS2)cc1)OCC` (centres undefined): 3000 nM.
In turn, `COC(=O)CCC#Cc1ccc(C2SCC(C(C)(C)C)CS2)cc1` (centres undefined) showed a concentration for half-maximal inhibition (IC50) of 17 nM. Compared with the last compound, the IC50 is about 180-fold lower.
`CC(C)(C)C1CSC(c2ccc(C#CCCC(=O)O)cc2)SC1` (centres undefined) displayed an IC50 of 5 nM. This IC50 is about 3.4-fold lower than that of the compound before.
With `CC(C)(O)C#Cc1ccc(C2SCC(C(C)(C)C)CS2)cc1` (centres undefined), the IC50 is over 10000 nM.
For the compound `CC(C)(C)C1CSC(c2ccc(C#CCCO)cc2)SC1` (centres undefined), the IC50 is 400 nM.
Regarding `CC(C)(C)C1CSC(c2ccc(C#CC(=O)O)cc2)SC1` (centres undefined), the IC50 is 7 nM.
